Measurements taken from patent US20260234180A1, “AMINO ACID DERIVATIVE, PREPARATION METHOD THEREFOR, AND PHARMACEUTICAL COMPOSITION FOR TREATING HEPATITIS, COMPRISING SAME” (priority 2021, published 2026).

Target: T1, NTCP (Na+ taurocholate cotransporting peptide), HepG2-hNTCP-C4 cell line (Homo sapiens, UniProt Q14973)
T1 construct: expressed in transfected cells; host or cells: HepG2-hNTCP-C4 (HepG2 cells expressing human NTCP)
T1 sequence (Q14973 1-349): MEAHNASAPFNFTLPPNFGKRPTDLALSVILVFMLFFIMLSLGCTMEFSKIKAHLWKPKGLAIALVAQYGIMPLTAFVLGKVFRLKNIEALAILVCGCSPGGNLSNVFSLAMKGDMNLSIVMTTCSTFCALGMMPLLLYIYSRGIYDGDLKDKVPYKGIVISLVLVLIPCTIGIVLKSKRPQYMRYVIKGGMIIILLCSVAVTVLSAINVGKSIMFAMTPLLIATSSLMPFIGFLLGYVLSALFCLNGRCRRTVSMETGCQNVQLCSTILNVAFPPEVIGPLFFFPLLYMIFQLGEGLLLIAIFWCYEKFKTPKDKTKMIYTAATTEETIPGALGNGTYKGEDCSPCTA
Experiment: Inhibition of binding between FITC-labelled PreS1 and NTCP expressing cell line, flow cytometry
Settings: for ability to inhibit the binding between PreS1 and NTCP expressing cell lines (bile acid series) / relative fluorescence intensity compared to Comparative Example 1 (LCA): compound 50 µM; for ability to inhibit the binding between PreS1 and NTCP expressing cell lines (bile acid series) / effect of inhibiting the binding between PreS1 and NTCP expressing cell lines by treatment concentration: 20 nM PreS1; for effect of inhibiting the binding between PreS1 and NTCP expressing cell lines by treatment concentration: 2 μM, 10 μM, 50 μM; for relative fluorescence intensity in comparison with the parent bile acid Comparative Example: vs Comparative Example 2 (UDCA), 5 (DCA) or 6 (CDCA), method as Experimental Example 1-1; for difference in degree of competitive inhibition versus the parent bile acid Comparative Example: vs Comparative Example 5 or 6; for relative fluorescence intensity compared to Comparative Example 1 (LCA): 20 nM PreS1, 4° C., 2 hours, lower = more inhibited binding
Experimental: HepG2-hNTCP-C4 cell line, a cell line expressing NTCP, was seeded in a 6 well plate at a density of 2×10^5/well and incubated at 4° C. for 30 minutes when the confluency reached 80% after overnight incubation for 2 days. Thereafter, 20 nM PreS1 (Myr-GTNL […]-Lys(FITC) (SEQ ID NO: 1)) and the compounds in Example 1, Examples 38 to 56 or the compound in Comparative Example 1 were treated by diluting in culture media at 4° C. at a concentration of 50 µM respectively, and the media was suctioned after 2 hours, followed by washing 3 times with 4° C. PBS. In order to take the cells off from the plate, 500 μl of 0.5 mM EDTA PBS solution was treated, and then incubation was performed at 37° C. for 15 minutes to check whether the cells fell off through an optical microscope. After taking off the cells by pipetting, the cells were collected in a 1.5 ml tube and centrifuged (4000 rpm, 4° C., 3 min). After suctioning the supernatant, the pellet was washed 3 times with 4° C. PBS, and then green fluorescence was measured via flow cytometry. In this case, taurocholic acid (TCA), a compound known as a substrate of NTCP to reduce the entry of HBV or HDV, was used as a positive control group.
In the graph at the top of FIG. 1, black (1) and red (2) indicate a negative control group with no treatment and an HBV-induced group (HBV preS1) solely treated with PreS1, respectively. Blue (HBV preS1+HBV entry inhibitor) (3) is the fluorescence value for each of Examples or Comparative Examples, evaluated that the closer to the negative control group, the more inhibited the binding between PreS1 and the NTCP cell line.
The experimental method was the same as in the Experimental Example 1-1, and 20 nM PreS1 and each compound were treated at 4 concentrations (0.2 μM, 2 μM, 10 μM, 50 μM).
With an expectation that there is a structure-activity relationship among compounds composed of bile acid and amino acids, for each of bile acids in Comparative Example 1 (lithocholic acid, LCA), Comparative Example 2 (ursodeoxycholic acid, UDCA), Comparative Example 3 (cholic acid, CA), Comparative Example 4 (hyodeoxycholic acid, HDCA), Comparative Example 5 (deoxycholic acid, DCA), and Comparative Example 6 (chenodeoxycholic acid, CDCA), an evaluation experiment was conducted on an ability to inhibit the binding between PreS1 and NTCP expressing cell lines, and also for Examples 1 (LCA-Ile) and Example 44 (LCA-Val) as well as the compounds in Example 2 (UDCA-Ile), Example 3 (UDCA-Val), Example 6 (CA-Ile), Example 7 (CA-Val), Example 8 (HDCA-Ile), Example 9 (HDCA-Val), Example 10 (DCA-Ile), Example 11 (DCA-Val), Example 14 (CDCA-Ile), and Example 15 (CDCA-Val) in which bile acid parts (lithocholic acid) of Example 1 (LCA-Ile) and Example 44 (LCA-Val) were substituted with other types of bile acids in Comparative Examples 2 to 6, an evaluation experiment was conducted on an ability to inhibit the binding between PreS1 and NTCP expressing cell lines. The experimental method was the same as in the Experimental Example 1-1, and 18 compounds in the Comparative Examples 1 to 6, Examples 1 to 3, Examples 6 to 11, Examples 14 to 15, and Example 44 were treated at a concentration of 50 µM along with 20 nM PreS1.
In FIG. 9, an evaluation experiment was conducted to check a degree of inhibiting the binding between PreS1 and NTCP expressing cell lines for compounds in Examples 4 to 5, Examples 12 to 13, Examples 16 to 17, and Comparative Examples 2 (ursodeoxycholic acid, UDCA), Comparative Examples 5 (deoxycholic acid, DCA), and Comparative Examples 6 (chenodeoxycholic acid, CDCA) according to the present disclosure. The experimental method was the same as the Experimental Example 1-1.
In the Experimental Examples 1-4, it was determined whether there is additionally concentration dependence for Example 4 (UDCA-Trp), a compound with good inhibitory ability. […]

[1] = compared to the HBV-induced group (PreS1-FITC) solely treated with PreS1

CC(C)[C@H](NC(=O)CC[C@@H](C)[C@H]1CC[C@H]2[C@@H]3C[C@H](O)[C@@H]4C[C@H](O)CC[C@]4(C)[C@H]3CC[C@]12C)C(=O)O [Example 9, (S)-2-((R)-4-((3R,5R,6S,8S,9S,10R,13R,14S,17R)-3,6-dihydroxy-10,13-dimethyl-hexadecahydro-1H-cyclopenta[a]phenanthren-17-yl)pentanamido)-3-methylbutanoic acid]
ability to inhibit the binding between PreS1 and NTCP expressing cell lines (bile acid series): relatively excellent

CC[C@@H](C)[C@H](NC(=O)CC[C@@H](C)[C@H]1CC[C@H]2[C@@H]3[C@H](O)C[C@@H]4C[C@H](O)CC[C@]4(C)[C@H]3CC[C@]12C)C(=O)O [Example 14, (2S,3R)-2-((R)-4-((3R,5S,7R,8R,9S,10S,13R,14S,17R)-3,7-dihydroxy-10,13-dimethyl-hexadecahydro-1H-cyclopenta[a]phenanthren-17-yl)pentanamido)-3-methylpentanoic acid]
ability to inhibit the binding between PreS1 and NTCP expressing cell lines (bile acid series): relatively excellent

C[C@H](CCC(=O)N[C@@H](Cc1c[nH]c2ccccc12)C(=O)O)[C@H]1CC[C@H]2[C@@H]3[C@@H](O)C[C@@H]4C[C@H](O)CC[C@]4(C)[C@H]3CC[C@]12C [Example 4, (S)-2-((R)-4-((3R,5S,7S,8R,9S,10S,13R,14S,17R)-3,7-dihydroxy-10,13-dimethyl-hexadecahydro-1H-cyclopenta[a]phenanthren-17-yl)pentanamido)-3-(1H-indol-3-yl)propanoic acid]
effect of inhibiting the binding between PreS1 and NTCP expressing cell lines by treatment concentration (20 μM): concentration dependent | difference in degree of competitive inhibition versus Comparative Example 2 (UDCA) [1]: about 2 times | relative fluorescence intensity in comparison with the parent bile acid Comparative Example: low

C[C@H](CCC(=O)N[C@@H](Cc1c[nH]c2ccccc12)C(=O)O)[C@H]1CC[C@H]2[C@@H]3[C@H](O)C[C@@H]4C[C@H](O)CC[C@]4(C)[C@H]3CC[C@]12C [Example 16, (S)-2-((R)-4-((3R,5S,7R,8R,9S,10S,13R,14S,17R)-3,7-dihydroxy-10,13-dimethyl-hexadecahydro-1H-cyclopenta[a]phenanthren-17-yl)pentanamido)-3-(1H-indol-3-yl)propanoic acid]
difference in degree of competitive inhibition versus the parent bile acid Comparative Example [1]: 17.8% | relative fluorescence intensity in comparison with the parent bile acid Comparative Example: low

C[C@H](O)[C@H](NC(=O)CC[C@@H](C)[C@H]1CC[C@H]2[C@@H]3CC[C@@H]4C[C@H](O)CC[C@]4(C)[C@H]3CC[C@]12C)C(=O)O [Example 39, (2S,3S)-3-hydroxy-2-((R)-4-((3R,5R,8R,9S,10S,13R,14S,17R)-3-hydroxy-10,13-dimethyl-hexadecahydro-1H-cyclopenta[a]phenanthren-17-yl)pentanamido)butanoic acid]
relative fluorescence intensity compared to Comparative Example 1 (LCA): low and lower

C[C@H](CCC(=O)N[C@@H](Cc1c[nH]c2ccccc12)C(=O)O)[C@H]1CC[C@H]2[C@@H]3CC[C@@H]4C[C@H](O)CC[C@]4(C)[C@H]3C[C@H](O)[C@]12C [Example 12, (S)-2-((R)-4-((3R,5R,8R,9S,10S,12S,13R,14S,17R)-3,12-dihydroxy-10,13-dimethyl-hexadecahydro-1H-cyclopenta[a]phenanthren-17-yl)pentanamido)-3-(1H-indol-3-yl)propanoic acid]
difference in degree of competitive inhibition versus the parent bile acid Comparative Example [1]: 11.6% | relative fluorescence intensity in comparison with the parent bile acid Comparative Example: the same or lower

C[C@H](CCC(=O)N[C@@H](CS)C(=O)O)[C@H]1CC[C@H]2[C@@H]3CC[C@@H]4C[C@H](O)CC[C@]4(C)[C@H]3CC[C@]12C [Example 40, (R)-2-((R)-4-((3R,5R,8R,9S,10S,13R,14S,17R)-3-hydroxy-10,13-dimethyl-hexadecahydro-1H-cyclopenta[a]phenanthren-17-yl)pentanamido)-3-mercaptopropanoic acid]
relative fluorescence intensity compared to Comparative Example 1 (LCA): low and lower

C[C@H](CCC(=O)N[C@@H](CCCCN)C(=O)O)[C@H]1CC[C@H]2[C@@H]3CC[C@@H]4C[C@H](O)CC[C@]4(C)[C@H]3CC[C@]12C [Example 56, (S)-6-amino-2-((R)-4-((3R,5R,8R,9S,10S,13R,14S,17R)-3-hydroxy-10,13-dimethyl-hexadecahydro-1H-cyclopenta[a]phenanthren-17-yl)pentanamido)hexanoic acid]
relative fluorescence intensity compared to Comparative Example 1 (LCA): low

C[C@H](CCC(=O)N[C@@H](Cc1c[nH]c2ccccc12)C(=O)O)[C@H]1CC[C@H]2[C@@H]3CC[C@@H]4C[C@H](O)CC[C@]4(C)[C@H]3CC[C@]12C [Example 50, (S)-2-((R)-4-((3R,5R,8R,9S,10S,13R,14S,17R)-3-hydroxy-10,13-dimethyl-hexadecahydro-1H-cyclopenta[a]phenanthren-17-yl)pentanamido)-3-(1H-indol-3-yl)propanoic acid]
effect of inhibiting the binding between PreS1 and NTCP expressing cell lines by treatment concentration (0.2 μM): concentration dependent | relative fluorescence intensity compared to Comparative Example 1 (LCA): low and lower

C[C@H](NC(=O)CC[C@@H](C)[C@H]1CC[C@H]2[C@@H]3CC[C@@H]4C[C@H](O)CC[C@]4(C)[C@H]3CC[C@]12C)C(=O)O [Example 46, (S)-2-((R)-4-((3R,5R,8R,9S,10S,13R,14S,17R)-3-hydroxy-10,13-dimethyl-hexadecahydro-1H-cyclopenta[a]phenanthren-17-yl)pentanamido)-3-propanoic acid]
relative fluorescence intensity compared to Comparative Example 1 (LCA): low

CC[C@@H](C)[C@H](NC(=O)CC[C@@H](C)[C@H]1CC[C@H]2[C@@H]3C[C@H](O)[C@@H]4C[C@H](O)CC[C@]4(C)[C@H]3CC[C@]12C)C(=O)O [Example 8, (2S,3R)-2-((R)-4-((3R,5R,6S,8S,9S,10R,13R,14S,17R)-3,6-dihydroxy-10,13-dimethyl-hexadecahydro-1H-cyclopenta[a]phenanthren-17-yl)pentanamido)-3-methylpentanoic acid]
ability to inhibit the binding between PreS1 and NTCP expressing cell lines (bile acid series): relatively excellent

CC(C)C[C@H](NC(=O)CC[C@@H](C)[C@H]1CC[C@H]2[C@@H]3CC[C@@H]4C[C@H](O)CC[C@]4(C)[C@H]3CC[C@]12C)C(=O)O [Example 47]
relative fluorescence intensity compared to Comparative Example 1 (LCA): low and lower
